Test results from patent US12441691B2 (Cytokinetics, Inc., priority 2020, dated 2025).
pEC50: −log10 of the molar value. Converted amounts (≈) assume the structure as drawn.

Tests used:
[1] = test system: rabbit skeletal myofibrils (fast skeletal myofibrils); assay: Activation of fast skeletal myofibrils (PUMA assay, AC1.4); type: biochemical; conditions: calcium at pCa25, AC1.4 = concentration at which the compound increased the enzymatic activity
Procedure, shortened: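 Detergent-washed rabbit psoas myofibrils (~90% fast fibers), calcium set to give 25% of maximal rate (pCa25). ATPase followed by pyruvate kinase/lactate dehydrogenase-coupled NADH oxidation, absorbance at 340 nm. PM12 buffer: 12 mM PIPES, 2 mM MgCl2, 1 mM DTT, pH 6.8.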

[2] = test system: ankle plantarflexor muscle; assay: Rat isometric ankle plantarflexor muscle force; type: in vivo, Sprague Dawley rats; conditions: continuous intravenous infusion over sixty minutes, 30 Hz nerve stimulation, estimated EC50 = concentration at which muscle force is 50% of pre-dose maximum tension
Description: Female Sprague Dawley rats were placed under a stable anesthetic plane with inhaled isoflurane (1-5%). One incision was made on the mid-thigh region of the right leg to expose the sciatic nerve. To prevent co-contraction of the ankle dorsiflexors, an additional incision was made lateral to the patella to isolate and sever the peroneal nerve. Rats were then placed on a temperature-maintained in situ muscle analysis rig (Aurora Scientific, Model 806C). The knee was immobilized in a clamp between two sharpened screws and the foot was taped to a footplate attached to a force transducer (Aurora Scientific, Ontario, Canada). Stainless steel needle electrodes (0.10 mm) were hooked around the exposed sciatic nerve. Isometric ankle plantarflexor muscle contractile force was assessed with the ankle joint at 90° flexion. A 30 Hz electrical stimulation (under supramaximal voltage conditions) was applied to the nerve and the resulting muscle force was recorded via a servomotor. A pre-dose 30 Hz force response was established as the baseline force. A pre-dose 150 Hz force response was established as the maximum isometric force. Compounds were formulated in 50% polyethylene glycol (PEG): 16% Cavitron: 10% dimethylacetamide (DMA) and administered by continuous intravenous infusion over a sixty minute period. The muscle force response to compound was measured every two minutes over the dosing period. Data were reported as an estimated EC50 value, which is the concentration at which muscle force is 50% of the pre-dose maximum tension. In Table 10, “Example Compound” refers to the compound labeled with the same number in Table 2.

[3] = Thermodynamic aqueous solubility (FaSSIF); type: physicochemical
Description: Aqueous solubility was determined by suspending sufficient compound in relevant media to give a maximum final concentration of >10 mg/ml of the parent free-form of the compound. The suspension was equilibrated at 37° C., on a Heidolph plate shaker set to 750 rpm for 24 hours. The pH of the saturated solution was then measured, and the suspension filtered through a glass fibre C filter (particle retention 1.2 μm) and diluted appropriately. Quantitation was by HPLC with reference to a standard solution of approximately 0.15 mg/ml in DMSO. Different volumes of the standard, diluted and undiluted sample solutions were injected. The solubility was calculated using the peak areas determined by integration of the peak found at the same retention time as the principal peak in the standard injection.

[4] = Gravimetric vapour sorption (GVS); type: physicochemical; conditions: for GVS mass change / GVS water uptake, mol equivalents of water: between 0 and 90% RH, 25° C.; for XRPD after GVS analysis: form after GVS measurement; for Hygroscopicity by GVS: 0-90% RH
Description: Sorption isotherms were obtained using a SMS DVS Intrinsic moisture sorption analyser, controlled by DVS Intrinsic Control software. The sample temperature was maintained at 25° C. by the instrument controls. The humidity was controlled by mixing streams of dry and wet nitrogen, with a total flow rate of 200 ml/min. The relative humidity was measured by a calibrated Rotronic probe (dynamic range of 1.0-100% RH), located near the sample. The weight change, (mass relaxation) of the sample as a function of % RH was constantly monitored by a microbalance (accuracy ±0.005 mg).
Typically, 5-30 mg of sample was placed in a tared mesh stainless steel basket under ambient conditions. The sample was loaded and unloaded at 40% RH and 25° C. (typical room conditions). A moisture sorption isotherm was performed as outlined below (2 scans per complete cycle). The standard isotherm was performed at 25° C. at 10% RH intervals over a 0-90% RH range. Typically, a double cycle (4 scans) was carried out. Data analysis was carried out within Microsoft Excel using the DVS Analysis Suite.
The sample was recovered after completion of the isotherm and re-analysed by XRPD.

[5] = Water determination by Karl Fischer titration (KF); type: physicochemical
Description: The water content of each sample was measured on a Metrohm 874 Oven Sample Processor at 150° C. with 851 Titrano Coulometer using Hydranal Coulomat AG oven reagent and nitrogen purge. Weighed solid samples were introduced into a sealed sample vial. Approximately 10 mg of sample was used per titration and duplicate determinations were made. […] Data collection and analysis were performed using Tiamo software.

[6] = Static storage stability of crystalline form by XRPD; type: physicochemical
[7] = 40° C./75% RH, 7 days (one week)

Row | SMILES | AC1.4 [1] | pEC50 [2] | also measured
1 | CC[C@H](C)[C@H]1C(=O)Nc2ccccc2CN1C(=O)CC(N)=O [Compound 1, 3-((S)-3-((S)-sec-Butyl)-2-oxo-1,2,3,5-tetrahydro-4H-benzo[e][1,4]diazepin-4-yl)-3-oxopropanamide] | 0.91 µM | 4.58 | 
2 | CC[C@H](C)[C@H]1C(=O)Nc2ccccc2CN1/C(N)=N/C#N [Compound 2, (S,E)-3-((S)-sec-Butyl)-N′-cyano-2-oxo-1,2,3,5-tetrahydro-4H-benzo[e][1,4]diazepine-4-carboximidamide] | 0.08 µM | 4.72 | 
3 | CC[C@H](C)[C@H]1C(=O)Nc2ccccc2CN1CC(N)=O [Compound 6, 2-((S)-3-((S)-sec-Butyl)-2-oxo-1,2,3,5-tetrahydro-4H-benzo[e][1,4]diazepin-4-yl)acetamide] | 0.89 µM | 4.69 | 
4 | CC(C)[C@H]1C(=O)Nc2ccccc2CN1C(N)=O [Compound 7, (S)-3-Isopropyl-2-oxo-1,2,3,5-tetrahydro-4H-benzo[e][1,4]diazepine-4-carboxamide] | 1.80 µM | 4.39 | 
5 | CC[C@H](C)[C@H]1C(=O)Nc2cc(F)cc(F)c2CN1C(N)=O [Compound 8, (S)-3-((S)-sec-butyl)-6,8-difluoro-2-oxo-1,2,3,5-tetrahydro-4H-benzo[e][1,4]diazepine-4-carboxamide] | 0.37 µM | 4.82 | 
6 | CC[C@H](C)[C@H]1C(=O)Nc2ccc(F)cc2CN1C(N)=O [Compound 9, (S)-3-((S)-sec-Butyl)-7-fluoro-2-oxo-1,2,3,5-tetrahydro-4H-benzo[e][1,4]diazepine-4-carboxamide] | 0.28 µM | 4.72 | 
7 | CC[C@H](C)[C@H]1C(=O)Nc2cncc(F)c2CN1C(N)=O [Compound 10, (S)-3-((S)-sec-Butyl)-6-fluoro-2-oxo-1,2,3,5-tetrahydro-4H-pyrido[3,4-e][1,4]diazepine-4-carboxamide] | 0.71 µM | 4.73 | 
8 | CC[C@H](C)[C@H]1C(=O)Nc2cnccc2CN1C(N)=O [Compound 12, (S)-3-((S)-sec-butyl)-2-oxo-1,2,3,5-tetrahydro-4H-pyrido[3,4-e][1,4]diazepine-4-carboxamide] | 0.84 µM | 4.41 | 
9 | CC[C@H](C)[C@H]1C(=O)Nc2ccccc2CN1C(=O)N1CC(O)C1 [Compound 32, (S)-3-((S)-sec-Butyl)-4-(3-hydroxyazetidine-1-carbonyl)-1,3,4,5-tetrahydro-2H-benzo[e][1,4]diazepin-2-one] | 0.13 µM | 4.90 | 
10 | CC[C@H](C)[C@H]1C(=O)Nc2ccccc2CN1C(=O)CCO [Compound 49, (S)-3-((S)-sec-butyl)-4-(3-hydroxypropanoyl)-1,3,4,5-tetrahydro-2H-benzo[e][1,4]diazepin-2-one] | 0.55 µM | 4.55 | 
11 | CC(C)[C@H]1C(=O)Nc2ccccc2CN1/C(N)=N/C#N [Compound 64, (S,E)-N′-Cyano-3-isopropyl-2-oxo-1,2,3,5-tetrahydro-4H-benzo[e][1,4]diazepine-4-carboximidamide] | 0.53 µM | 4.70 | 
12 | CC[C@H](C)[C@H]1C(=O)Nc2cccc(F)c2CN1C(N)=O [Compound 65, (S)-3-((S)-sec-butyl)-6-fluoro-2-oxo-1,2,3,5-tetrahydro-4H-benzo[e][1,4]diazepine-4-carboxamide] | 0.37 µM | 4.95 | 
13 | CC[C@H](C)[C@H]1C(=O)Nc2cnccc2CN1/C(N)=N/C#N [Compound 82, (S,E)-3-((S)-sec-butyl)-N′-cyano-2-oxo-1,2,3,5-tetrahydro-4H-pyrido[3,4-e][1,4]diazepine-4-carboximidamide] | 0.24 µM | 4.67 | 
14 | CC[C@H](C)[C@H]1C(=O)Nc2ccccc2CN1C(=O)N[C@H]1CCN(C)C1 [Compound 144, (S)-3-((S)-sec-butyl)-N-((S)-1-methylpyrrolidin-3-yl)-2-oxo-1,2,3,5-tetrahydro-4H-benzo[e][1,4]diazepine-4-carboxamide] | 0.28 µM | 4.98 | 
15 | CC(C)[C@H]1C(=O)Nc2cc(F)ccc2CN1C(N)=O [Compound 357, (S)-8-fluoro-3-isopropyl-2-oxo-1,2,3,5-tetrahydro-4H-benzo[e][1,4]diazepine-4-carboxamide] | 1.69 µM | 4.23 | 
16 | CC[C@H](C)[C@H]1C(=O)Nc2cncc(F)c2CN1C(N)=O [Crystalline Form I, (S)-3-((S)-sec-Butyl)-6-fluoro-2-oxo-1,2,3,5-tetrahydro-4H-pyrido[3,4-e][1,4]diazepine-4-carboxamide] |  |  | XRPD of solid residues ([3]; solid residues after thermodynamic solubility in FaSSIF (37° C.)): Form I; solubility thermodynamic at 24 h ([3]; thermodynamic from solid, FaSSIF, 37° C., equilibrated 24 hours): 460 µg/mL (≈ 1640 µM); GVS mass change [4]: 0.29% Mass change between 0 and 90% RH.; GVS water uptake, mol equivalents of water [4]: 0.04 mol. equivalents water; XRPD after GVS analysis [4]: Unchanged; KF water content [5]: 0.1% water
17 | CC[C@H](C)[C@H]1C(=O)Nc2cncc(F)c2CN1C(N)=O [Form II] |  |  | Hygroscopicity by GVS [4]: slightly hygroscopic; GVS mass change [4]: 0.23%; XRPD after GVS analysis [4]: unchanged; Static storage, XRPD [6, 7]: no changes
18 | CC[C@H](C)[C@H]1C(=O)Nc2cncc(F)c2CN1C(N)=O [Form I] |  |  | Hygroscopicity by GVS [4]: slightly hygroscopic; GVS mass change [4]: 0.29%; GVS water uptake, mol equivalents of water [4]: 0.04 mol. equivalents water; XRPD after GVS analysis [4]: unchanged; Static storage, XRPD ([6]; 25° C./97% RH (one week for Form I)): unchanged; Static storage, XRPD [6, 7]: unchanged; KF water content [5]: 0.1%
